Results reported in US7795179B2, “Substituted azole compounds and its preparation and use thereof” (Shenyang Research Institute of Chemical Industry, priority 2004, dated 2010).

Tests used:
Type in all cases: in vivo
[1] = test system: cucumber downy mildew; assay: Fungicidal activity on potted plants, cucumber downy mildew; details: spray on potted plant, inoculation after 24 hours
[2] = test system: wheat powdery mildew; assay: Fungicidal activity on potted plants, wheat powdery mildew; details: spray on potted plant, inoculation after 24 hours
[3] = test system: rape sclerotiniose; assay: Fungicidal activity on potted plants, rape sclerotiniose; details: 100 ppm
[4] = test system: wheat head blight; details: 100 ppm
[5] = test system: apple ring rot; assay: Fungicidal activity on potted plants, apple ring rot; details: 100 ppm
Experimental: Determination of fungicidal activities against plant diseases of selected compounds were carried out by following procedure:
Technical samples were dissolved in DMF and diluted to required concentration wtih water containing 0.1% tween 80. Test solution was sprayed onto potted plant. Pathogen inoculation was carried out after 24 hours then plants were hold in growth chambers containing constant temperature and moisture for effect. When untreated plant was under desirable disease severity (after 1 week approximately), assessment were carried out by visual observation.

[6] = test system: tomato early blight; assay: Fungicidal activity on potted plants, tomato early blight; details: 100 ppm
[7] = test system: corn southern leaf blight; assay: Fungicidal activity on potted plants, corn southern leaf blight; details: 100 ppm
[8] = test system: apple alternaria leaf spot; assay: Fungicidal activity on potted plants, apple alternaria leaf spot; details: 100 ppm
[9] = test system: tomato late blight; details: 100 ppm
[10] = test system: grape white rot; assay: Fungicidal activity on potted plants, grape white rot; details: 100 ppm
[11] = test system: grape downy mildew; assay: Fungicidal activity on potted plants, grape downy mildew; details: 100 ppm
[12] = test system: armyworm; assay: Insecticidal activity, Potter spraying tower, armyworm; details: 150 ppm, mortality 2 to 3 days after treatment
Experimental: (§1) Determination of insecticidal and acaricidal activities against plant diseases of selected compounds were carried out by following procedure:
(§2) Technical samples were dissolved in acetone and diluted to required concentration with water containing 0.1% of tween 80. Armyworm, diamondback moth and green peach aphid were treated with Potter spraying tower, and culex mosquito was treated with dipping culture method. Mortality investigation of test insects was carried out 2 to 3 days after treatment.

[13] = test system: diamondback moth; assay: Insecticidal activity, Potter spraying tower, diamondback moth; details: 150 ppm, mortality 2 to 3 days after treatment
Experimental: as §1, §2

[14] = test system: culex mosquito; assay: Insecticidal activity, dipping culture method, culex mosquito; details: 150 ppm, mortality 2 to 3 days after treatment
Experimental: as §1, §2

[15] = test system: green peach aphid; assay: Insecticidal activity, Potter spraying tower, green peach aphid; details: 150 ppm, mortality 2 to 3 days after treatment
Experimental: as §1, §2

[16] = test system: cucumber grey mold; assay: Fungicidal activity on potted plants, cucumber grey mold; details: 500 ppm, spray on potted plant, inoculation after 24 hours

SMILES | control against cucumber downy mildew ([1]; 50 ppm) | control against cucumber downy mildew ([1]; 500 ppm) | control against wheat powdery mildew ([2]; 50 ppm) | control against wheat powdery mildew ([2]; 500 ppm) | also measured
CO/C=C(/C(=O)OC)c1ccccc1COc1cc(-c2ccccc2)nn1C [Compound 1] | 100% | 100% | 100% | 100% | –
CO/C=C(/C(=O)OC)c1ccccc1COc1cc(-c2ccc(Cl)cc2)nn1C [Compound 2] | 100% | 100% | 100% | 100% | control against rape sclerotiniose [3]: more than 80%; control against wheat head blight [4]: more than 80%; control against apple ring rot [5]: more than 80%; control against tomato early blight [6]: more than 80%; control against corn southern leaf blight [7]: more than 80%; control against apple alternaria leaf spot [8]: more than 80%; control against tomato late blight [9]: more than 80%; control against grape white rot [10]: more than 80%; control against grape downy mildew [11]: more than 80%
CO/C=C(/C(=O)OC)c1ccccc1COc1cc(-c2ccc([N+](=O)[O-])cc2)nn1C [Compound 4] | 100% | 100% | 100% | 100% | –
CO/C=C(/C(=O)OC)c1ccccc1COc1cc(-c2ccc(C(F)(F)F)cc2)nn1C [Compound 5] | 100% | 100% | 100% | 100% | –
CO/C=C(/C(=O)OC)c1ccccc1COc1cc(-c2cc(F)c(Cl)cc2Cl)nn1C [Compound 11] | – | 100% | – | 100% | –
CO/C=C(/C(=O)OC)c1ccccc1COc1cc(-c2ccc(OC)c(OC)c2)nn1C [Compound 12] | – | 100% | – | 100% | –
CO/C=C(/C(=O)OC)c1ccccc1COc1c(C)c(-c2ccc(Cl)cc2)nn1C [Compound 30] | 100% | 100% | 100% | 100% | control of armyworm [12]: 100%; control of diamond backmoth [13]: 100%; control of culex mosquitoes [14]: 100%; control of aphids [15]: 100%
CO/C=C(/C(=O)OC)c1ccccc1COc1cc(-c2ccc(Cl)nc2)nn1C [Compound 69] | 100% | 100% | 100% | 100% | –
CO/C=C(/C(=O)OC)c1ccccc1COc1cc(-c2ccc(OCC(F)(F)F)cc2)nn1C [Compound 74] | – | 100% | – | 100% | –
CO/C=C(/C(=O)OC)c1ccccc1COc1cc(-c2ccccc2)no1 [Compound 83] | – | 100% | – | 100% | –
CO/C=C(/C(=O)OC)c1ccccc1COc1cc(-c2ccc(Cl)cc2)no1 [Compound 84] | 100% | 100% | 100% | 100% | –
CO/C=C(/C(=O)OC)c1ccccc1COc1cc(-c2ccc([N+](=O)[O-])cc2)no1 [Compound 86] | 100% | 100% | 100% | 100% | –
CO/C=C(/C(=O)OC)c1ccccc1COc1cc(-c2ccc(Cl)nc2)no1 [Compound 151] | – | – | – | 100% | control against cucumber grey mold [16]: 100%
CO/C=C(/C(=O)OC)c1ccccc1COc1cc(-c2ccc(SC)cc2)nn1C [Compound 165] | – | – | – | 100% | –
CO/C=C(/C(=O)OC)c1ccccc1COc1cc(-c2ccc(Oc3ccccc3)cc2)nn1C [Compound 174] | – | – | – | 100% | –
CO/C=C(/C(=O)OC)c1ccccc1COc1c(Cl)c(-c2ccc(-c3ccc(Cl)cc3)cc2)nn1C [Compound 179] | – | – | – | 100% | –
CO/C=C(/C(=O)OC)c1ccccc1COc1cc(-c2ccc(Cl)cc2)nn1C(C)C [Compound 190] | – | 100% | – | 100% | –
CO/N=C(/C(=O)OC)c1ccccc1COc1cc(-c2ccccc2)nn1C [Compound 247] | – | – | – | 100% | control against cucumber grey mold [16]: 100%
CO/N=C(/C(=O)OC)c1ccccc1COc1cc(-c2ccc(Cl)cc2)nn1C [Compound 248] | – | 100% | – | 100% | –
CO/N=C(/C(=O)OC)c1ccccc1COc1cc(-c2ccc(Cl)nc2)nn1C [Compound 287] | 100% | 100% | 100% | 100% | –
CNC(=O)/C(=N/OC)c1ccccc1COc1cc(-c2ccc(Cl)cc2)nn1C [Compound 356] | – | – | – | 100% | –
CNC(=O)/C(=N/OC)c1ccccc1COc1cc(-c2ccc(Cl)cc2)nn1C(C)C [Compound 435] | – | – | – | 100% | –
